Results published in PubChem BioAssay AID2060488 (Molecular Pharmacology Branch, DTP, NCI, 2025).
pIC50: −log10 of the molar value.

Test system: 966289-007-R4-J1-PDC complex spheroid viability
Experiment: Anticancer human tumor 966289-007-R4-J1-PDC patient-derived pancreatic adenocarcinoma cell line growth inhibition [GQUAD]
Conditions: for pIC50: curve of first compound; for viability, T/C: stronger effect = lower value
Source text: DNA G-quadruplex Stabilizer Agents in Combinations in Complex Spheroids
A high-throughput screen of multi-cell type tumor spheroids was designed to identify active combinations of DNA G-quadruplex stabilizer agents and targeted small molecules. Complex spheroids include a stromal component modeled by human endothelial cells (HUVEC) and fibroblasts modeled by human mesenchymal stem cells (MSCs). The concentration ranges selected for each drug and investigational agent were based upon clinically achievable concentrations if the clinical Cmax of the agent was known.
Compounds. The drugs and investigational agents: pidnarulex (CX-5461; NSC782164), APTO-253 (NSC789042), BRACO-19 (NSC847499), peposertib (NSC802822), ceralasertib (NSC780249), elimusertib (NSC800525), camonsertib (NSC841442), AZD-1390 (NSC803789), olaparib (NSC753686), talazoparib (NSC767125), ART-558 (NSC835418), sotorasib (NSC818433), MRTX-1133 (NSC836407), SN-38 (NSC673596), topotecan (NSC609699), etoposide (NSC141540), doxorubicin (NSC123127), gemcitabine (NSC613327), 5-fluorouracil (NSC19893), paclitaxel (NSC125973), vemurafenib (NSC761431), panobinostat (NSC761190), R-306465 (JNJ-16241199; NSC773264), adavosertib (NSC754352), TP-3654 (NSC805149), carboplatin (NSC241240), KSQ-4279 (NSC840948), and staurosporine (NSC755774) were obtained from the National Cancer Institute (NCI) Developmental Therapeutics Program Chemical Repository (34). The FDA-approved anticancer drug set is available from the NCI Developmental Therapeutics Program. […] The stock solutions were prepared in dimethyl sulfoxide (DMSO, Sigma-Aldrich, St. Louis, MO, cat. D2650) at 800-fold the tested concentration and stored at -70 degrees C prior to their use. All drugs and investigational agents were tested over a range starting from a high concentration at or near the clinical Cmax and decreasing in half-log increments. If the clinical Cmax for an agent had not been determined, the highest concentration tested was 10 microM.
2.3 Cell Culture. All cells were maintained in an incubator at 37 degrees C and 5% CO2 with 95% humidity. The PDC lines were cultured according to standard operating procedures established by the NCI PDMR. All PDCs were thawed and cultured in Matrigel-coated flasks prepared with a working solution of 1X Ham's F-12 nutrient mix, without supplementation (Invitrogen, cat. 11765054), 100 U/mL penicillin-streptomycin (Invitrogen, cat. 15140122), and 2.5% Matrigel (Corning Inc., cat. 354248) for the first three passages. The 857933-349-R-J2-PDC line was cultured in 6C/Colon 1B media, which includes advanced DMEM/F-12 (Thermo Fisher Scientific, cat. 12634028), 10 mM HEPES (Thermo Fisher Scientific, cat. 15630080), 1X GlutaMAX supplement (Thermo Fisher Scientific, cat. 35050061), 0.1 mg/mL primocin (InvivoGen, cat. ant-pm-2), 10% defined fetal bovine serum, heat inactivated (HyClone Laboratories Inc., cat. SH30070.03HI), 50% L-WRN conditioned media (ATCC, cat. CRL-3276), 1.25 mM N-Acetyl-L-cysteine (Sigma-Aldrich, cat. A9165), 10 mM nicotinamide (Sigma-Aldrich, cat. N0636), 1X B-27 supplement (Thermo Fisher Scientific, cat. 17504044), 1X N-2 supplement (Thermo Fisher Scientific, cat. 17502048), 10 microM Y-27632 dihydrochloride (Tocris Bioscience, cat. 1254), and 50 ng/mL human EGF recombinant protein (Thermo Fisher Scientific, cat. PHG0311). The 485176-168-R4-J1-PDC line was cultured in Panc media, which includes all 6C/Colon 1B media components plus 100 ng/mL human FGF-10 (Thermo Fisher Scientific, cat. 100-26), 500 nM SB-431542 (Selleckchem, cat. S1067), and gastrin (Tocris, cat. 3006).
[…]

[1] = second compound 0.0316 µM, first compound 0.0316 µM
[2] = second compound 0.0316 µM, first compound 0.1 µM
[3] = second compound 0.0316 µM, first compound 0.316 µM
[4] = second compound 0.0316 µM, first compound 1 µM
[5] = second compound 0.0316 µM, first compound 3.16 µM
[6] = second compound 0.0316 µM, first compound 10 µM
[7] = second compound 0.1 µM, first compound 0.0316 µM
[8] = second compound 0.1 µM, first compound 0.1 µM
[9] = second compound 0.1 µM, first compound 0.316 µM
[10] = second compound 0.1 µM, first compound 1 µM
[11] = second compound 0.1 µM, first compound 3.16 µM
[12] = second compound 0.1 µM, first compound 10 µM
[13] = second compound 0.316 µM, first compound 0.0316 µM
[14] = second compound 0.316 µM, first compound 0.1 µM
[15] = second compound 0.316 µM, first compound 0.316 µM
[16] = second compound 0.316 µM, first compound 1 µM
[17] = second compound 0.316 µM, first compound 3.16 µM
[18] = second compound 0.316 µM, first compound 10 µM
[19] = second compound 1 µM, first compound 0.0316 µM
[20] = second compound 1 µM, first compound 0.1 µM
[21] = second compound 1 µM, first compound 0.316 µM
[22] = second compound 1 µM, first compound 1 µM
[23] = second compound 1 µM, first compound 3.16 µM
[24] = second compound 1 µM, first compound 10 µM
[25] = second compound 3.16 µM, first compound 0.0316 µM
[26] = second compound 3.16 µM, first compound 0.1 µM
[27] = second compound 3.16 µM, first compound 0.316 µM
[28] = second compound 3.16 µM, first compound 1 µM
[29] = second compound 3.16 µM, first compound 3.16 µM
[30] = second compound 3.16 µM, first compound 10 µM
[31] = second compound 10 µM, first compound 0.0316 µM
[32] = second compound 10 µM, first compound 0.1 µM
[33] = second compound 10 µM, first compound 0.316 µM
[34] = second compound 10 µM, first compound 1 µM
[35] = second compound 10 µM, first compound 3.16 µM
[36] = second compound 10 µM, first compound 10 µM
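Note: spheroids exposed to the agents for seven days before readout.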
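Throughout, for viability, T/C: percent viability relative to DMSO vehicle control wells taken as 100%.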

**Q.** With CC1COCCN1c1cc(-c2ccnn2C)c2ccnc(-c3ccn[nH]3)c2n1 (centres undefined) + CN(C)c1ccc(Nc2c3ccc(NC(=O)CCN4CCCC4)cc3nc3cc(NC(=O)CCN4CCCC4)ccc23)cc1 as the compound, how does the pIC50 (second compound 0.0316 µM) read?
**A.** 6.67

**Q.** And the pIC50 (second compound 0.1 µM)?
**A.** 6.64

**Q.** And the pIC50 (second compound 0.316 µM)?
**A.** 6.67

**Q.** And the pIC50 (second compound 1 µM)?
**A.** 6.62

**Q.** What about the pIC50 (second compound 3.16 µM) of the same compound?
**A.** 6.66

**Q.** What about the pIC50 (second compound 10 µM) of the same compound?
**A.** 6.84

**Q.** And the viability, T/C [1]?
**A.** 113%

**Q.** And the viability, T/C [2]?
**A.** 88.9%

**Q.** And the viability, T/C [3]?
**A.** 29.1%

**Q.** What about the viability, T/C [4] of the same compound?
**A.** 11.2%

**Q.** And the viability, T/C [5]?
**A.** 6.12%

**Q.** And the viability, T/C [6]?
**A.** 3.97%

**Q.** What about the viability, T/C [7] of the same compound?
**A.** 113%

**Q.** What about the viability, T/C [8] of the same compound?
**A.** 97.5%

**Q.** What about the viability, T/C [9] of the same compound?
**A.** 30.8%

**Q.** And the viability, T/C [10]?
**A.** 10.2%

**Q.** And the viability, T/C [11]?
**A.** 5.52%

**Q.** What about the viability, T/C [12] of the same compound?
**A.** 4.49%

**Q.** What about the viability, T/C [13] of the same compound?
**A.** 108%

**Q.** What about the viability, T/C [14] of the same compound?
**A.** 89.6%

**Q.** And the viability, T/C [15]?
**A.** 29.3%

**Q.** And the viability, T/C [16]?
**A.** 11%

**Q.** What about the viability, T/C [17] of the same compound?
**A.** 5.87%

**Q.** What about the viability, T/C [18] of the same compound?
**A.** 4.36%

**Q.** What about the viability, T/C [19] of the same compound?
**A.** 107%

**Q.** What about the viability, T/C [20] of the same compound?
**A.** 96.2%

**Q.** What about the viability, T/C [21] of the same compound?
**A.** 35.1%

**Q.** And the viability, T/C [22]?
**A.** 10.6%

**Q.** And the viability, T/C [23]?
**A.** 4.68%

**Q.** What about the viability, T/C [24] of the same compound?
**A.** 4.37%

**Q.** What about the viability, T/C [25] of the same compound?
**A.** 110%

**Q.** What about the viability, T/C [26] of the same compound?
**A.** 94.3%

**Q.** And the viability, T/C [27]?
**A.** 28.2%

**Q.** What about the viability, T/C [28] of the same compound?
**A.** 10.7%

**Q.** And the viability, T/C [29]?
**A.** 6.99%

**Q.** What about the viability, T/C [30] of the same compound?
**A.** 5.79%

**Q.** What about the viability, T/C [31] of the same compound?
**A.** 103%

**Q.** And the viability, T/C [32]?
**A.** 64.3%

**Q.** What about the viability, T/C [33] of the same compound?
**A.** 18.2%

**Q.** And the viability, T/C [34]?
**A.** 9.04%

**Q.** And the viability, T/C [35]?
**A.** 5.74%

**Q.** And the viability, T/C [36]?
**A.** 4.94%

**Q.** Which results are given for CC1COCCN1c1cc(C2(O)CC3CCC(C2)O3)c2cnn(-c3ccn[nH]3)c2n1 (centres undefined) + CN(C)c1ccc(Nc2c3ccc(NC(=O)CCN4CCCC4)cc3nc3cc(NC(=O)CCN4CCCC4)ccc23)cc1?
**A.** pIC50 (second compound 0.0316 µM): 6.75; pIC50 (second compound 0.1 µM): 6.75; pIC50 (second compound 0.316 µM): 6.75; pIC50 (second compound 1 µM): 6.78; pIC50 (second compound 3.16 µM): 6.83; pIC50 (second compound 10 µM): 7.13; viability, T/C [1]: 116%; viability, T/C [2]: 75.1%; viability, T/C [3]: 24.1%; viability, T/C [4]: 8.6%; viability, T/C [5]: 5.79%; viability, T/C [6]: 5.95%; viability, T/C [7]: 112%; viability, T/C [8]: 81.4%; viability, T/C [9]: 18.1%; viability, T/C [10]: 8.59%; viability, T/C [11]: 5.93%; viability, T/C [12]: 5.58%; viability, T/C [13]: 109%; viability, T/C [14]: 75.8%; viability, T/C [15]: 23.1%; viability, T/C [16]: 9%; viability, T/C [17]: 5.73%; viability, T/C [18]: 5.87%; viability, T/C [19]: 103%; viability, T/C [20]: 74.3%; viability, T/C [21]: 19.6%; viability, T/C [22]: 8.84%; viability, T/C [23]: 6.93%; viability, T/C [24]: 4.89%; viability, T/C [25]: 104%; viability, T/C [26]: 65.6%; viability, T/C [27]: 19.1%; viability, T/C [28]: 8.61%; viability, T/C [29]: 6.25%; viability, T/C [30]: 4.79%; viability, T/C [31]: 86.3%; viability, T/C [32]: 37.3%; viability, T/C [33]: 12.7%; viability, T/C [34]: 6.7%; viability, T/C [35]: 6.68%; viability, T/C [36]: 3.1%
